Entries after “also recorded” stand apart in the source; their conditions may differ.
Columns and labels:
[1] = system: mixed cortical cells from P1 rats; assay: Aβ1-42 oligomer cytotoxicity assay, MTT readout; type: cell-based, rat; conditions: for reversal of Aβ1-42 oligomer-mediated toxicity: mixed primary cortical cultures, different IgG backbones
Method: FIG. 2 provides graphs and immunocytochemical images corresponding to the experiments described in Example 6.3. […] An MTT assay was used to determine cell viability as described in the Methods section. The means (±SEM) of five independent experiments are shown. *P<0.05, **P<0.01. […] Neurotoxicity following extended Aβ1-42 oligomer treatment was tested by morphological analyses (C).
A non-specific IgG monoclonal antibody was used as a control in all experiments.
Rat primary cortical cultures were prepared from Sprague-Dawley rats (Charles River Laboratories L'Arbresle, France) at post-natal day 1, as described by Meberg and Miller (Meberg and Miller, 2003). Cerebellum and meninges were removed, and cortices were cut into small pieces and dissociated with enzymatic disruption at 37° C. in dissociation buffer (papaine, CaCl2, EDTA, and HEPES; all from Invitrogen, Carlsbad, Calif.). DNase (Invitrogen) was added for 10 min. Following dissociation, dispersed cortical neurons were plated onto poly-L-lysine (0.01%; mol. wt 150,000-300,000; Sigma) coated 6-well, 24-well, or 96-well tissue culture plates. For immunocytochemistry, cells were grown on coated glass coverslips, into 24-well plates. Cells were maintained in Neurobasal media (Invitrogen) without phenol-red, with the addition of L-glutamine (2 mM; Sigma), B27 supplement (Invitrogen), and penicillin/streptomycin (Sigma) in a humidified incubator at 37° C. and 5% CO2. Following 1 h and 30 min in culture, the media was replaced with astrocyte-conditioned medium. After a further 4 days in culture, cell proliferation was blocked by treatment with cytosine arabinoside (Ara-C) at 2.5 μM (Invitrogen). Under these culture conditions, 20% of cells were identified as neurons by NeuN/DAPI staining (not shown). Experiments using mixed cortical cultures were generally performed at days-in-vitro (“DIV”) 6 unless stated otherwise. Enriched microglia prepared from cortex and hippocampus were harvested as described for cortical cultures above. Cortex and hippocampus were put in DMEM containing high glucose and homogenized by pipetting with a 10 mL pipette and then with a syringe. The homogenate was centrifuged for 3 min at 1,000×g, and then resuspended in pre-warmed DMEM containing high glucose containing 10% FCS and penicillin/streptomycin (microglia media). The cell suspension was next transferred to a T75 tissue-culture flask and kept in a humidified incubator at 37° C. and 5% CO2 for 1 week. The flask was shaken to separate microglia from adherent cells, and collected and washed in DMEM. The resulting cells were resuspended in 1 mL microglia media, counted, and plated at 5×10^4 cells/well. To verify microglial enrichment, cells were stained with the astroglial and microglial markers GFAP and Iba1, respectively. Greater than 60% of cells stained positive for Iba1, with no cells staining for both GFAP and Iba1. Pure microglia were prepared from post-natal day 3 CX3CR1-GFP mice (Jackson Laboratories). Cortex and hippocampus were dissected and triturated in DMEM containing high glucose using a 10 mL pipette, and then with an 18 gauge needle. The homogenate was centrifuged for 3 min at 1,000 g, and then resuspended in pre-warmed DMEM containing high glucose, 10% FBS and penicillin/streptomycin (microglia media). The cell suspension was next transferred to a T75 tissue-culture flask and kept in a humidified incubator at 37° C. and 5% CO2 for 7-10 d. Microglia were isolated by shaking, collected and washed in DMEM. The resulting cells were resuspended in 1 mL microglia media, counted, and plated on tissue culture treated glass chamber slides at 5×10^4 cells/well for use in experiments.
The cytotoxicity of Aβ1-42 oligomers was tested on mixed cortical cultures at DIV 5. All antibodies, at a final concentration of 100 μg/mL, were co-incubated with Aβ1-42 oligomers for 30 min in serum-free cell culture medium at 37° C. before treatment of cells. […]

[2] = system: mixed cortical cells from P1 rats; assay: Immunofluorescence of Aβ1-42 oligomer binding to neurons; type: cell-based, rat; conditions: co-treatment, 30 min to 18 h
Method: FIG. 3 provides graphs and immunocytochemical images corresponding to the experiments described in Example 6.4. Aβ1-42 oligomer binding to neurites was reduced by the anti-Aβ IgG4 monoclonal antibody. […] Green indicates staining with TuJ1, red indicates labeling with anti-Aβ (clone 6E10), and blue indicates staining with DAPI. […] Quantitative measures of fluorescence are shown for 30 min treatment and 18 h treatment (B). Mean results (±SEM) of two experiments are shown. […] Cortical cultures from P1 rats were treated as described for (A), except that Aβ1-42 tagged with HyLite Fluor-488 was used (C). Aβ1-42-labeled samples are shown in the upper panel and DAPI-stained samples are shown in the lower panel. One representative experiment is shown. Aβ1-42 fluorescence was quantified, with the mean (±SD) of the two independent experiments shown (D). […]
Aβ peptides, especially aggregation intermediates (Bateman et al., 2007), are known to associate with various lipids and proteins present in cell membranes. […] This effect was readily apparent as early as 30 min (FIGS. 3A and 3B) and remained for at least 18 h of treatment (FIG. 3B).
Cells were grown on a glass coverslips. […] Fluorescence intensity was measured in cell bodies delineated by saturated epifluorescence pictures. […]

[3] = target: Aβ1-42 binding to recombinant human ApoE4 (Homo sapiens, UniProt P05067); assay: ELISA of Aβ1-42 binding to recombinant human ApoE4; type: biochemical; conditions: saturating concentrations of ApoE4 and Aβ1-42
From the text: FIG. 9 provides a graph corresponding to the experiments described in Example 6.2. […] Percent inhibition of signal without an IgG monoclonal antibody is shown. […] The interaction site of ApoE4 with Aβ1-42 requires amino acids 18 to 28 (Strittmatter et al., 1993).

Sequence of Aβ1-42 binding to recombinant human ApoE4 (P05067 672-713 limits assumed): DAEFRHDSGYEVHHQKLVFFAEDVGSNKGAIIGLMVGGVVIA

Row | Substance | reversal of Aβ1-42 oligomer-mediated toxicity [1] | interaction of Aβ1-42 oligomers with neurons [2] | antibody-mediated increase in MTT signal under p38MAPK inhibition ([1]; 10 μM Aβ1-42 oligomers, 100 μg/ml antibody, 1 μM SB239063, 24 h) | rescue from Aβ1-42 oligomer toxicity (MTT) ([1]; Aβ1-42 oligomer up to 5 μM, 24 h, MABT to oligomer molar ratio 1:7.5) | inhibition of the Aβ1-42 and ApoE4 interaction [3]
1 | MABT-IgG1: same antigen binding sequences as MABT on human IgG1 wild-type backbone with full FcγR-binding capacity | full reversal of Aβ1-42 oligomer-mediated toxicity; also recorded: trended towards a smaller protective effect when compared to MABT |  |  |  | 
2 | MABT: humanized anti-Aβ monoclonal antibody of IgG4 isotype, affinity matured and humanized form of mouse mMABT | full reversal of Aβ1-42 oligomer-mediated toxicity | blocked the interaction of Aβ1-42 oligomers with neurons | reduced to that of MABT-IgG1-D265A | complete rescue from toxicity | over 80%

Source: patent US9221900B2, “Methods for identifying safe and functional humanized antibodies” (AC IMMUNE S.A., priority 2010, dated 2015)
